Data published in patent publication US20210115509A1, “BIOMARKER FOR IDENTIFYING SPECIFIC EXPOSURE TO KETONES AND METHOD OF IDENTIFICATION USING THE SAME” (KOREA INSTITUTE OF SCIENCE AND TECHNOLOGY, priority 2019, published 2021).

Experiments:
[1] = system: BEAS-2B human bronchial epithelial cell line; assay: MTT assay, cytotoxicity of ketone compounds in BEAS-2B cell line; assay type: cell-based
Method: BEAS-2B (Korean Cell Line Bank), a human bronchial epithelial cell line, was cultured using RPMI 1640 medium (Gibco, USA) supplemented with 10% FBS until the cells grew to about a confluence of 70 to 80% in a 100 mm dish.
Among ketones belonging to mVOCs (microbial volatile organic compounds) exposed to the environment, acetone, 2-butanone, 2-pentanone, 2-hexanone and 2-heptanone were selected, and the chemicals were dissolved in filtered distilled water (DW). A vehicle concentration was set to 0.1% or less in all experiments.
MTT assay using a BEAS-2B cell line was performed in accordance with the method of Mossman et al. (J. Immunol. Methods, 65, 55-63, 1983).
Specifically, the cells were seeded at a density of 3.5×10^4 cells/well in a 24-well plate and treated with the five ketone compounds dissolved in filtered distilled water, prepared in Example 1-2. After 48 hours, the result was mixed with 5 mg/ml of MTT (3-4,5-dimethylthiazol-2,5-diphenyltetrazolium bromide), added to a tube and incubated at 37° C. for 3 hours. Then, the medium was removed, the formed formazan crystal was dissolved in 500 μl of DMSO, and then 100 μl of the solution was transferred to a 96-well plate to measure an OD (optical density) value at 540 nm.

[2] = system: BEAS-2B human bronchial epithelial cell line; assay: Gene expression change by high-throughput RNA sequencing (NextSeq 500) in ketone-exposed BEAS-2B cells; assay type: cell-based
Method: RNA was extracted from cell samples of ketone-exposed and non-ketone-exposed groups using a TRIzol reagent (Life Technologies, USA) in accordance with the manufacturer's directions to isolate total RNA and the total RNA was purified using a RNeasy mini kit (Qiagen, USA). The concentration of each total RNA sample was determined by a ND-2000 spectrophotometer (Thermo Inc., DE, USA) as a spectrophotometer and Agilent 2100 Bioanalyzer (Agilent Technologies, USA).
The establishment of libraries from the total RNA obtained in Example 2-1 in the experimental group and the normal control group exposed to the ketones was carried out using a QuantSeq 3′ mRNA-Seq Library Prep Kit (Lexogen, Inc., Austria) in accordance with the manufacturer's directions. 500 ng of the total RNA was hybridized with an oligo-dT primer including an Illumina-compatible sequence at the 5′ end of RNA, followed by reverse transcription. After degradation of the RNA template, a second strand was synthesized using a random primer including an Illumina-compatible linker sequence at the 5′ end thereof. Double-stranded libraries were purified using magnetic beads to remove all reaction components. The library was amplified in order to add the entire adapter sequence required for cluster production, and the completed cDNA library was purified from the PCR components.
Sequencing was performed by high-throughput sequencing as single-end 75 sequencing using a NextSeq 500 (IIlumina, Inc., USA). Read count (RC) data was processed based on the quantile normalization method using EdgeR in R (R development Core Team, 2016) using Bioconductor (Gentleman et al., 2004). Gene classification was based on searches performed on DAVID (http://david.abcc.ncifcrf.gov/) and the Medline database (http://www.ncbi.nlm.nih.gov/).
The extracted data were analyzed through normalization using Agilent GeneSpring GX 12.6.1 (Agilent technologies, CA, USA) to analyze the expression pattern of each gene.

[3] = IC5 conc.: Acetone 5.38, 2-Butanone 22.27, 2-Pentanone 5.24, 2-Hexanone 14.82, 2-Heptanone 5.05 mM
[4] = IC20 conc.: Acetone 71.90, 2-Butanone 106.21, 2-Pentanone 39.38, 2-Hexanone 52.51, 2-Heptanone 20.22 mM

## CCCC(C)=O [2-Pentanone, 2-pentanone]
[1]; human, 48 h
  concentration (105) providing a survival rate (viability) of 95%: 5240 µM
  concentration (1020) providing a survival rate (viability) of 80%: 39330 µM
[2]; [3]
  Fold change ADRA2A (NM_000681): 0.179
  Fold change ATRNL1 (NR_074088): 4.158
  Fold change C12orf79 (NR_046159): 0.213
  Fold change C14orf80 (NR_046159): 0.354
  Fold change CALML3 (NM_001286399): 0.354
  Fold change CCDC184 (NM_001013635): 4.501
  Fold change CD37 (NM_001040031): 2.028
  Fold change CDHR1 (NM_001171971): 0.216
  Fold change CHL1 (NM_001253387): 0.335
  Fold change COL4A3 (NM_000091): 2.229
  Fold change CRLF2 (NM_022148): 0.355
  Fold change CSF3R (NM_172313): 0.354
  Fold change DNMBP-AS1 (NR_024130): 2.406
  Fold change EGR1 (NM_001964): 0.419
  Fold change GNA14 (NM_004297): 8.261
  Fold change LOC728752 (NR_036504): 7.322
  Fold change PAX8 (NM_003466): 2.723
  Fold change PRRT3-AS1 (NR_046734): 2.817
  Fold change RBP3 (NM_002900): 0.354
  Fold change SEPT14 (NM_207366): 0.214
  Fold change SERPINA12 (NM_001304461): 0.354
  Fold change SLC13A4 (NM_012450): 8.995
  Fold change SPOCK2 (NM_001244950): 4.031
  Fold change TSPAN1 (NM_005727): 4.281
  Fold change USP12-AB1 (NR_046647): 7.329
  Fold change VIPR†-AS1 (NR_046654): 0.354
  Fold change XIRP1 (NM_001198621): 0.354
  Fold change ZFP69B (NM_023070): 2.472
  Fold change ZNF432 (NM_014650): 4.086
  Fold change ZNF487 (NR_026693): 0.354
[2]; [4]
  Fold change ADRA2A (NM_000681): 0.184
  Fold change ATRNL1 (NR_074088): 2.665
  Fold change C12orf79 (NR_046159): 0.216
  Fold change C14orf80 (NR_046159): 0.356
  Fold change CALML3 (NM_001286399): 0.356
  Fold change CCDC184 (NM_001013635): 2.387
  Fold change CD37 (NM_001040031): 3.272
  Fold change CDHR1 (NM_001171971): 0.223
  Fold change CHL1 (NM_001253387): 0.273
  Fold change COL4A3 (NM_000091): 5.033
  Fold change CRLF2 (NM_022148): 0.359
  Fold change CSF3R (NM_172313): 0.356
  Fold change DNMBP-AS1 (NR_024130): 8.289
  Fold change EGR1 (NM_001964): 0.332
  Fold change GNA14 (NM_004297): 6.776
  Fold change LOC728752 (NR_036504): 5.683
  Fold change PAX8 (NM_003466): 2.277
  Fold change PRRT3-AS1 (NR_046734): 3.902
  Fold change RBP3 (NM_002900): 0.356
  Fold change SEPT14 (NM_207366): 0.218
  Fold change SERPINA12 (NM_001304461): 0.356
  Fold change SLC13A4 (NM_012450): 2.153
  Fold change SPOCK2 (NM_001244950): 2.181
  Fold change TSPAN1 (NM_005727): 3.938
  Fold change USP12-AB1 (NR_046647): 2.362
  Fold change VIPR†-AS1 (NR_046654): 0.356
  Fold change XIRP1 (NM_001198621): 0.356
  Fold change ZFP69B (NM_023070): 2.299
  Fold change ZNF432 (NM_014650): 5.290
  Fold change ZNF487 (NR_026693): 0.356

## CC(C)=O [Acetone, acetone]
[1]; BEAS-2B, 48 hours, MTT
  concentration (105) providing a survival rate (viability) of 95%: 5380 µM
  concentration (1020) providing a survival rate (viability) of 80%: 71900 µM
[2]; [3]
  Fold change ADRA2A (NM_000681): 0.179
  Fold change ATRNL1 (NR_074088): 3.000
  Fold change C12orf79 (NR_046159): 0.213
  Fold change C14orf80 (NR_046159): 0.354
  Fold change CALML3 (NM_001286399): 0.354
  Fold change CCDC184 (NM_001013635): 12.166
  Fold change CD37 (NM_001040031): 2.781
  Fold change CDHR1 (NM_001171971): 0.409
  Fold change CHL1 (NM_001253387): 0.224
  Fold change COL4A3 (NM_000091): 4.046
  Fold change CRLF2 (NM_022148): 0.355
  Fold change CSF3R (NM_172313): 0.354
  Fold change DNMBP-AS1 (NR_024130): 2.455
  Fold change EGR1 (NM_001964): 0.422
  Fold change GNA14 (NM_004297): 5.492
  Fold change LOC728752 (NR_036504): 4.554
  Fold change PAX8 (NM_003466): 2.753
  Fold change PRRT3-AS1 (NR_046734): 2.261
  Fold change RBP3 (NM_002900): 0.354
  Fold change SEPT14 (NM_207366): 0.214
  Fold change SERPINA12 (NM_001304461): 0.354
  Fold change SLC13A4 (NM_012450): 10.528
  Fold change SPOCK2 (NM_001244950): 5.291
  Fold change TSPAN1 (NM_005727): 5.935
  Fold change USP12-AB1 (NR_046647): 3.620
  Fold change VIPR†-AS1 (NR_046654): 0.354
  Fold change XIRP1 (NM_001198621): 0.354
  Fold change ZFP69B (NM_023070): 2.708
  Fold change ZNF432 (NM_014650): 4.647
  Fold change ZNF487 (NR_026693): 0.354
[2]; [4]
  Fold change ADRA2A (NM_000681): 0.355
  Fold change ATRNL1 (NR_074088): 2.751
  Fold change C12orf79 (NR_046159): 0.213
  Fold change C14orf80 (NR_046159): 0.354
  Fold change CALML3 (NM_001286399): 0.354
  Fold change CCDC184 (NM_001013635): 4.927
  Fold change CD37 (NM_001040031): 2.526
  Fold change CDHR1 (NM_001171971): 0.429
  Fold change CHL1 (NM_001253387): 0.360
  Fold change COL4A3 (NM_000091): 2.490
  Fold change CRLF2 (NM_022148): 0.357
  Fold change CSF3R (NM_172313): 0.358
  Fold change DNMBP-AS1 (NR_024130): 5.285
  Fold change EGR1 (NM_001964): 0.437
  Fold change GNA14 (NM_004297): 2.289
  Fold change LOC728752 (NR_036504): 4.939
  Fold change PAX8 (NM_003466): 5.800
  Fold change PRRT3-AS1 (NR_046734): 2.061
  Fold change RBP3 (NM_002900): 0.376
  Fold change SEPT14 (NM_207366): 0.214
  Fold change SERPINA12 (NM_001304461): 0.354
  Fold change SLC13A4 (NM_012450): 12.386
  Fold change SPOCK2 (NM_001244950): 5.054
  Fold change TSPAN1 (NM_005727): 2.949
  Fold change USP12-AB1 (NR_046647): 6.910
  Fold change VIPR†-AS1 (NR_046654): 0.354
  Fold change XIRP1 (NM_001198621): 0.354
  Fold change ZFP69B (NM_023070): 4.454
  Fold change ZNF432 (NM_014650): 5.319
  Fold change ZNF487 (NR_026693): 0.354
